Data: US11827897B2, “Agricultural compositions and related methods” (Flagship Pioneering Innovations VI, LLC, priority 2018, dated 2023)
Where a SMILES comes first, the peptide text is derived from it.

What was measured:
BMS cell growth = test: Cytotoxicity assay for concentrations not affecting apparent BMS cell growth; type: cell-based, Zea mays
Experimental: (§1) To determine the effect of the flagellin peptide flg22 ([…] (SEQ ID NO: 14) (AnaSpec AS-62633) on PMP production by Zea mays BMS cells, 200 mL of BMS cell culture were prepared as described above. A cytotoxicity assay was carried out to determine the range of concentrations of flg22 that would not affect apparent BMS cell growth, and the flg22 concentration of 1 μM was determined to be compatible with cell growth. 30 mL of BMS cell suspension was distributed in individual 125 mL conical culture vented-flasks. In parallel, 89.55 mL of fresh media was mixed with 450 μL of 400 μM flg22 peptide suspension prepared in ultrapure sterile water to a final concentration of 2 μM. For the control conditions, 450 μL of ultrapure sterile water was added instead of flg22. Then, 30 mL of the media/flg22 or media/water mix was added to each flask containing 30 mL cell suspension (1:1 v/v) to a flg22 final concentration of 1 μM. Biological triplicates were performed for both flg22 treatment and control conditions. Control cells and cells treated with flg22 were grown at 24° C. with agitation (110 rpm) for 96 hours.
To determine the effect of salicylic acid (SA) on PMP production by Zea mays BMS cells, 200 mL of BMS cell culture were prepared as described above. […] 30 mL of BMS cell suspension was distributed into individual 125 mL conical culture vented-flasks. […]

[1] = system: tomato plants grown in hydroponic culture; test: PMP production by tomato plants grown in hydroponic culture after salicylic acid treatment; type: in vivo, Solanum lycopersicum
Experimental: Seeds of tomato (Solanum lycopersicum) cultivar Moneymaker were sterilized as follows: 70% ethanol for 3 min, 50% household bleach with 0.1% Triton X-100 (Sigma) for 20 min, washed three times with sterile deionized water. Sterilized seeds were germinated on moistened filter paper (Whatman®) in sterile Petri dishes sealed with medical tape (3M) and placed in a plant growth incubator (16 hr light, 23 C/21 C day/night) for seven days. Clear, square, pre-sterilized plastic containers (PhytoTech Labs) were assembled into hydroponic containers similar to what was previously described (Alatorre-Cobos et al., BMC Plant Biol., 14: Article No.: 69, 2014; FIG. 8A). Two containers were cut with sterile scalpels to assemble a support for a sterile polytetrafluoroethylene (PTFE) plastic mesh (McMaster-Carr). Plastic mesh was fixed to plastic supports with sterile staples. Small openings were cut into the plastic mesh and germinated seedlings threaded through the openings using sterile forceps. Each mesh supported five seedlings. 200 mL 1×MS growth medium (Murashige & Skoog basal salt mixture (Sigma) 4.3 g/L, sucrose 10 g/L, MES (Sigma) 0.5 g/L, pH 5.8 adjusted with KOH) was added to a whole plastic container serving as the base. Plastic support with mesh and threaded seedlings was placed into the base container. A second whole plastic container with a cut 2 cm^2 opening and sealed with medical tape was used as the lid. The two halves were sealed with medical tape and the containers transferred to a plant incubator (16 hr light, 23° C./21° C. day/night) for three weeks. […]
Culture medium (180 mL per container) was collected and centrifuged at 4,000×g for 30 min to pellet debris. […] Pellets were resuspended in 200 μL 1×PBS, pH 7.4 and analyzed using nano flow-cytometry (NanoFCM). PMP concentration (treatment: 4.06×10^11±1.41×10^11 PMP/mL (SEM); control: 5.44×10^10±2.49×10^10 PMP/mL (SEM)) and PMP size (treatment: 97±25 nm (SD); control: 82±27 nm (SD)) were determined by NanoFCM using concentration and size standards provided by the manufacturer (FIG. 8B).

Zea mays BMS cells = test: PMP production by Zea mays BMS cell culture after elicitation (NanoFCM); type: cell-based; details: 100 μM salicylic acid, 96 hours
Experimental: Zea mays, Black Mexican Sweet (BMS) cells were purchased from the ABRC. BMS cells were grown in Murashige and Skoog basal medium pH 5.8, containing 4.3 g/L Murashige and Skoog Basal Salt Mixture (Sigma M5524), 2% sucrose (S0389, Millipore Sigma), 2 mg/L 2,4-dichlorophenoxyacetic acid (D7299, Millipore Sigma), 250 ug/L thiamine HCL (V-014, Millipore Sigma) and a 1× MS vitamin mix solution in ddH2O. The 1× vitamin mix solution contained niacin (N0761-100G, Millipore Sigma), pyroxidine hydrochloride (P6280-25G, Millipore Sigma), D-pantothenic acid hemicalcium salt (P5155-100G, Millipore Sigma), L-Asparagine (A4159-25G, Millipore Sigma), and myo-inositol (17508-100G, Millipore Sigma) at respective final concentrations of 1.3 mg/L, 250 μg/L, 250 μg/L, 130 mg/L, and 200 mg/L. Cells were grown in 1 L vented conical sterile flasks in dark conditions at 24° C. with agitation (110 rpm). For experiments, BMS cells were grown until cells were at a packed cell volume (PCV) of 20%. The PCV estimates cell density and is defined as the volume of cells divided by the total volume of the cell culture aliquot. The Packed Cell Volume is expressed as a percentage. The PCV was determined as follows: 5 mL of BMS cell suspension was centrifuged for 5 min at 3900 rpm, and the volume of the cell pellet was determined.
as §1, with “Then, 30 mL of the media/flg22 or media/water mix was added to each flask containing 30 mL cell suspension (1:1 v/v) to a flg22 final concentration of 1 μM. Biological triplicates were performed for both flg22 treatment and control conditions. Control cells and cells treated with flg22 were grown at 24° C. with agitation (110 rpm) for 96 hours.” left out

CC[C@H](C)[C@H](NC(=O)[C@H](CCC(N)=O)NC(=O)[C@H](CC(C)C)NC(=O)CNC(=O)[C@H](C)NC(=O)[C@H](C)NC(=O)[C@H](CC(=O)O)NC(=O)[C@H](CC(=O)O)NC(=O)[C@H](CCCCN)NC(=O)[C@H](C)NC(=O)[C@H](CO)NC(=O)[C@H](CC(N)=O)NC(=O)[C@@H](NC(=O)[C@H](CCCNC(=N)N)NC(=O)[C@H](CO)NC(=O)CNC(=O)[C@@H](NC(=O)[C@H](CO)NC(=O)[C@H](CC(C)C)NC(=O)[C@H](CCCNC(=N)N)NC(=O)[C@@H](N)CCC(N)=O)[C@@H](C)O)[C@@H](C)CC)C(=O)N[C@@H](C)C(=O)O [flg22] (H-QRLSTGSRINSAKDDAAGLQIA-OH)
concentration compatible with cell growth (BMS cell growth; Zea mays BMS cells): 1 µM

O=C(O)c1ccccc1O [salicylic acid]
PMP size ([1]; 1 mM salicylic acid for three days, ± SD, control 82±27 nm): 97±25 nm | effect on secretion of PMPs from the plant roots ([1]; hydroponically grown tomato, 1 mM salicylic acid): enhance secretion of PMPs from the plant roots | PMP concentration ([1]; three-week-old tomato plants, 1 mM salicylic acid for three days, ± SEM, n=2, DMSO control 5.44×10^10±2.49×10^10): 4.06×10^11±1.41×10^11 PMP/mL | concentration compatible with cell growth (BMS cell growth; Zea mays): 100 µM | effect on production of PMPs by BMS cells in culture (Zea mays BMS cells): stimulates the production of PMPs | PMP concentration (Zea mays BMS cells; BMS cells, average of triplicates, DMSO control 1.47×10^11 PMP/mL): 1.84×10^11 PMP/mL | mean PMP size (Zea mays BMS cells; BMS cells, control 87±15 nm): 86.5±15 nm
